± gives the expanded uncertainty stated by the source.
Conditions: 303.15 K, 101 kPa, Liquid; for viscosity: Capillary tube (Ostwald / Ubbelohde) method; for mass density: Pycnometric method

| Structure (SMILES) | speed of sound [m/s] | viscosity [mPa·s] | mass density [kg/m3] |
| --- | --- | --- | --- |
| Cc1ccccc1Cl [2-chlorotoluene] | 1284 ± 8 | 0.887 ± 0.023 | 1072.81 ± 6.5 |
| Clc1ccccc1Cl [1,2-dichlorobenzene] | 1261 ± 8 | 1.302 ± 0.033 | 1299.24 ± 9.4 |
| Clc1ccc(Cl)c(Cl)c1 [1,2,4-trichlorobenzene] | 1260 ± 8 | 1.613 ± 0.041 | 1442.14 ± 12 |
| Cc1cccc([N+](=O)[O-])c1 [3-nitrotoluene] | – | 1.777 ± 0.046 | 1147.67 ± 7.4 |
| Cc1cccc(Cl)c1 [3-chlorotoluene] | 1280 ± 8 | 0.78 ± 0.02 | 1065.21 ± 6.4 |

From the NIST ThermoML archive (doi:10.1016/j.jct.2006.04.005)
